The source of these data is US9062095B2, “Mutant double cyclized receptor peptides inhibiting β1-adrenoceptor antibodies” (JULIUS-MAXIMILIANS-UNIVERSTITAT-WURZBURG, priority 2007, dated 2015).

One experiment concerns anti-β1-ECII antibodies. Put plainly: ELISA-competition assay: peptide preincubated with sera/IgG of immunized antibody-positive rats, linear 25AA Cys/Cys-peptide as antigen. Format: binding, rat. Also on record: blocking capacity (% of blocked versus non-blocked ELISA-reactivity): concentration or dose not given beside the values. The conditions noted are these: for decrease in circulating free anti-beta1-ECII antibodies: n=6 sera (FIG. 11); for blocking capacity (% of blocked versus non-blocked ELISA-reactivity): IgG from n=78 immunized antibody-positive rats, preincubation 12 h, mutants with D-Glu ring closure (FIG. 7); for blocking capacity (% of blocked versus non-blocked ELISA-reactivity) / blocking-efficiency versus unblocked sera: 4° C.; for blocking capacity (% of blocked versus non-blocked ELISA-reactivity) / blocking efficiency (% of blocked versus non-blocked ELISA reactivity) / blocking capacity (% of blocked versus non-blocked ELISA reactivity): ±SEM; for blocking-efficiency versus unblocked sera: n=6 sera, incubation 12-14 h, mean ±SEM (FIG. 27); for blocking efficiency (% of blocked versus non-blocked ELISA reactivity): type1 sera (93%, n=64 of 69), FIG. 9 upper panel; for blocking capacity (% of blocked versus non-blocked ELISA reactivity): type 2 sera (7%, n=5 of 69), FIG. 9 lower panel. On the procedure:
FIG. 9 is a diagram composed of two major-(upper and lower) panels resuming the blocking effect of both 25AA- and 18AA-cyclopeptide mutants having a Gln closure site, as well as 18AA cyclopeptide mutants having a D-Glu closure site after preincubation (12 h, 4° C., rotating incubation) with sera isolated from 69 different immunized antibody-positive rats in an ELISA-competition assay using the 3 Cys-containing linear 25AA Cys/Cys-peptide as an antigen. The upper panel depicts rat sera preferentially reacting with the Cys/Ser mutated cyclopeptides (type1 reaction, n=64), separated in cyc25AA(Gln)-peptides (left) and cyc18AA(Gln and D-Glu)-peptides (right). The lower panel depicts the rat sera reacting with both the Cys/Ser and the Ser/Cys mutated cyclopeptides (type2 reaction, n=5), again separated in the results obtained with cyc25AA(Gln)-peptides (left) and cyc18AA(Gln and D-Glu)-peptides (right).
FIG. 11 is a diagram resuming the dose-dependent (x-axis, abscissa: fold molar excess of specific peptides) blocking capacity of various linear and cyclic beta1-ECII-peptides given in % of the unblocked antibody-titer (y-axis, ordinate), including 25AA Cys/Cys linear peptides (black squares), 25AA Cys/Ser cyclopeptide mutants (white squares), 18AA Cys/Cys cyclo-peptides (black diamonds), 18AA Cys/Ser cyclopeptide mutants (white diamonds), and 18AA Cys/Ser linear peptide mutants (vertically hatched diamonds) in an ELISA competition assay performed with sera from n=6 randomly chosen immunized antibody-positive rats.
FIGS. 27A and B depict the in vitro blocking (=neutralization) capacity of various cysteine-containing cyclopeptide variants of the second extracellular loop (ECII) of the human beta1-adrenergic receptor, determined by testing n=6 individual sera (27A) of immunized beta1-ECII-antibody-positive rats after over-night incubation with the indicated cyclopeptides (12-14 h, 4° C.) by ELISA. Columns in 27A represent the receptor-antibody blocking efficiency of the indicated cyclopeptides in % of the antibody-(ELISA-)signals obtained with unblocked antibody-positive rat sera. Columns in 27B represent the mean blocking efficiency for each cyclopeptide, error bars indicate ±SEM.
The blocking capacity of β1-ECII-18AA cyclopeptide mutants (Cys13-Ser14 or Ser13-Cys14 mutation having an additional D-Glu-Gln exchange, e.g. at the ring closure site) was compared with the 3 Cys-containing 25AA or 18AA Cys/Cys cyclopeptides after preincubation (12 h, 4° C., rotating incubation over-night) of different numbers of sera from immunized antibody-positive rats in an ELISA-competition assay using the 3 Cys-containing linear 25AA Cys/Cys-peptide as an antigen. FIGS. 4, 5, and 7-10 show the results from measurements performed with sera of n=12 up to n=82 immunized antibody-positive rats using different cyclopeptides of the present invention.
(In general: In an ELISA, binding on a coated surface is turned into a signal by an enzyme label.)

In experiment [1] the test system is beta1-receptor antibodies. The experiment can be described thus: in vivo prevention study: five prophylactic peptide applications, serum antibody-titers by ELISA. The arrangement: species or system rat. The conditions noted are these: 1.0 mg/kg body weight i.v., 4-weekly, prevention protocol (FIG. 12). Here is the method:
FIG. 12 is a diagram resuming the in vivo blocking capacity of in total five (prophylatic) applications of various linear and cyclic beta1-ECII-peptides, started 3 months after the first immunization (and two subsequent beta1-ECII/GST-antigen-boosts, corresponding to a prevention protocol). Serum-titers of the beta1-receptor antibodies were determined before and 18-20 h after each peptide injection (abscissa, time in months) and are given in % of the corresponding antibody-titers of immunized untreated rats (y-axis, ordinate). The injected peptides were: 25AA Cys/Cys linear peptide (black squares), […] (white squares), 18AA Cys/Cys cyclopeptide (black diamond), 18AA Cys/Ser cyclopeptide mutant (white diamonds), and the 18AA Cys/Ser linear peptide mutant (vertically hatched diamonds). […] Black circles indicate antibody-titers of untreated regularly (every 4 weeks) immunized animals serving as reference, set at 100%.
The in-vivo blocking effects of both 25AA and 18AA Cys/Ser mutant cyclopeptides (with a Gln closure site), the 18AA Ser/Cys mutant cyclopeptide, and a mutated linear 18AA Cys/Ser peptide were analyzed after intravenous (i.v.) injection of 1.0 mg/kg body weight (Bw) of each construct into freshly immunized antibody-positive rats (i.e., use of cyclo-peptides in a kind of “prevention” study), with a first cyclopeptide-application 3 months after the initial immunization (and two subsequent boost at months 2 and 3). In total, five prophylactic applications of the various constructs were given at 4-weekly intervals, always two weeks after the monthly continued antigen boost. Sera were drawn 18-20 hours after i.v. injection and assayed for reactivity by ELISA using the 3 Cys-containing linear 25AA Cys/Cys-peptide as an antigen (FIG. 12).

The test system of experiment [2] is anti-beta1-receptor antibody-titers. The experiment can be described thus: in vivo therapy study in long term immunized cardiomyopathic rats: antibody-titers by ELISA. The arrangement: species or system rat. Here is the method:
FIG. 16A is a diagram resuming the in vivo blocking effect of both 25AA and 18AA cyclopeptide mutants with a Gln closure site, determined after a total of nine intravenous (i.v.) in-jections of 1.0 mg/kg body weight (Bw) of the indicated peptides into immunized antibody-positive rats. Sera were drawn before and 18-20 hours after i.v. injection of the various peptides every 4 weeks (abscissa: time in months of treatment) and assayed for reactivity by ELISA using the 3 Cys-containing linear 25AA Cys/Cys-peptide as an antigen.
FIG. 16B is a diagram resuming the in vivo blocking effect of various concentrations of 18AA cyclopeptide mutants with a Gln closure site, determined after a total of nine intra-venous (i.v.) injections of 0.25, 1.0, 2.0, and 4.0 mg/kg body weight (Bw) into immunized antibody-positive rats, irrespective of the cyclopeptide “responder-state” of individual animals. Sera were drawn before and 18-20 hours after i.v. injection of the various peptides every 4 weeks (abscissa: time in months), and assayed for reactivity by ELISA using the 3 Cys-containing linear 25AA Cys/Cys-peptide as an antigen.
Sera were drawn as described above and assayed for reactivity by ELISA using the 3 Cys-containing linear 25AA Cys/Cys-peptide as an antigen.
Moreover, the in vivo blocking effects of therapeutically used 25AA and 18AA Cys/Ser cyclo-peptide mutants, the 18AA Ser/Cys mutant (Gln-)cyclopeptide, and a mutated linear 18AA Cys/Ser peptide were assessed after a first intravenous (i.v.) dose (i.e., 1.0 mg/kg body weight (Bw)) of each construct injected into long term immunized anti-beta1-ECII antibody-positive rats, yet presenting a cardiomyopathic phenotype (after nine months of 1× monthly immunization with the beta1-ECII/GST antigen; FIGS. 14-16 and 17). Sera were drawn 18-20 hours after the first i.v. injection of the various constructions and assayed for reactivity by ELISA using the 3 Cys-containing linear 25AA Cys/Cys-peptide as an antigen.
The latter doses were almost equally efficient in terms of both, neutralization of circulating receptor antibodies (FIGS. 16b and c), and reversal of antibody-induced cardiomyopathic features (FIGS. 17b, 19b, 20, and 21b).
In order to generate anti-β1-receptor antibodies the animals were immunized with a fusion protein containing bacterial glutathione-S-transferase and the sequence of the second extra-cellular loop of the human β1-adrenergic receptor (GST/β1-ECII). Before treatment of the animals with mutated cyclopeptides according to the present invention, progressive dilated immune cardiomyopathy is observed after 6 to 8 months of regular immunization every four weeks (FIG. 17). All of the immunized animals developed high titers of stimulatory anti-β1-ECII antibodies. The specific anti-β1-ECII titer reached a maximum between 6 and 8 months of continuously boosting the animals every 4 weeks, whereas NaCl-injected control animals developed no specific receptor antibodies (FIG. 18).
Such immunized animals were used for the application of mutant cyclopeptides according to the present invention. The in-vivo blocking effect of both 25AA and 18AA Cys/Ser mutant cyclopeptides (with a Gln closure site) were determined after a first intravenous (i.v.) injection of 1.0 mg/kg body weight (Bw) (for 18AA Cys/Ser cyclopeptides also 0.25 mg/kg/Bw) into immunized antibody-positive rats. Sera were drawn 18-20 hours after i.v. injection of the different peptides and assayed for reactivity by ELISA using the 3 Cys-containing linear 25AA Cys/Cys-peptide as an antigen.

[3] abbreviates: 20-fold molar excess of peptide.
The mark [4] stands for this setting: 80-fold molar excess of peptide.

Positions of bridges follow the written chain, without caps; N, C: chain ends. No end group written: not given here.

As for “18AA Cys/Cys cyclopeptides: (non-mutated) 3 Cys-containing β1-ECII-homologous 18AA cyclopeptide (cyclo(ADEARRCYNDPKCCDFVQ); not fully specified (bridges); cysteine pairing not given here) [reference compound]”, in the experiment with anti-β1-ECII antibodies (8-fold molar excess of peptide), the “decrease in circulating free anti-beta1-ECII antibodies” value amounted to 46%. In addition, the “decrease in circulating free anti-beta1-ECII antibodies” value in the experiment on anti-β1-ECII antibodies (setting [3]) amounted to 56%. The “decrease in circulating free anti-beta1-ECII antibodies” value in the experiment on anti-β1-ECII antibodies (setting [4]) turned out to be 71%. In the experiment on anti-β1-ECII antibodies, the “blocking capacity (% of blocked versus non-blocked ELISA-reactivity)” value was found to be 60±4%, the “blocking-efficiency versus unblocked sera” value was 66.1±7.0%, the “blocking efficiency (% of blocked versus non-blocked ELISA reactivity)” value is reported as 59±2% and the “blocking capacity (% of blocked versus non-blocked ELISA reactivity)” value turned out to be 67±6%. In addition, in experiment [1], the “antibody-titer decrease after 5 injections, compared with untreated immunized animals” value turned out to be 89.9±3%.
Regarding “ARAESDEARRCYNDPKCCDFVTNRQ (cysteine pairing not given here) [linear 25AA Cys/Cys peptides, reference compound]”, the “decrease in circulating free anti-beta1-ECII antibodies” value in the experiment with anti-β1-ECII antibodies (8-fold molar excess of peptide) is 24%; in the experiment on anti-β1-ECII antibodies (setting [3]), 35%; in the experiment on anti-β1-ECII antibodies (setting [4]), “about 50%”. Moreover, in the experiment on anti-β1-ECII antibodies, the “blocking capacity (% of blocked versus non-blocked ELISA-reactivity)” value was 55±4%. In experiment [1], the “antibody-titer decrease after 5 injections, compared with untreated immunized animals” value is reported as 25.8±3%.
Take “Cyclo-Ala-Arg-Ala-Glu-Ser-Asp-Glu-Ala-Arg-Arg-Cys-Tyr-Asn-Asp-Pro-Lys-Cys-Ser-Asp-Phe-Val-Thr-Asn-Arg-Gln (cyclo(ARAESDEARRCYNDPKCSDFVTNRQ); disulfide 11-17 (inferred)) [25AA Cys/Ser mutant cyclopeptides]”: the figures for the “decrease in circulating free anti-beta1-ECII antibodies” value with anti-β1-ECII antibodies (8-fold molar excess of peptide), in the experiment on anti-β1-ECII antibodies (setting [3]) and in the experiment on anti-β1-ECII antibodies (setting [4]) were 30%, 49% and 83%, respectively. Also, the “blocking efficiency (% of blocked versus non-blocked ELISA reactivity)” value in the experiment on anti-β1-ECII antibodies worked out at 69±2%. Besides, the “blocking capacity (% of blocked versus non-blocked ELISA reactivity)” value with anti-β1-ECII antibodies is listed as 48±6%. Also, in experiment [2] (1.0 mg/kg Bw (FIGS. 16a and b)), the “initial transient increase in antibody-titers” value is “transient increase in antibody-titers”. In experiment [2] (1.0 mg/kg i.v. every 4 weeks), the “absolute decrease in antibody-titers after 9 months of treatment, of the titer at start of therapy” value is on record as −37±13%.
“cyc22AA Cys/Cys: 3 cysteine-containing cyclic 22AA beta1-ECII peptide with a Gly closure site (cyclo(RAESDEARRCYNDPKCCDFVTG); disulfide (positions not given here)) [reference compound]”: the “blocking-efficiency versus unblocked sera” value in the experiment with anti-β1-ECII antibodies came out at 82.0±5.0%.
As to “cyclo(Ala-Asp-Glu-Ala-Arg-Arg-Cys-Tyr-Asn-Asp-Pro-Lys-Ser-Cys-Asp-Phe-Val-Gln) (cyclo(ADEARRCYNDPKSCDFVQ); disulfide 7-14 (inferred)) [18AA Ser/Cys with Gln-]”, the “fraction of rat sera blocked by the peptide” value with anti-β1-ECII antibodies (n=69 sera, (Gln-)cyclopeptide mutants (FIG. 10), Cys/Ser = blocked by it alone (n=64), Ser/Cys = sera blocked by both (n=5)) is recorded as “about 7%”. In the experiment on anti-β1-ECII antibodies, the “blocking efficiency (% of blocked versus non-blocked ELISA reactivity)” value is reported as 1±2% and the “blocking capacity (% of blocked versus non-blocked ELISA reactivity)” value is listed as 47±3%. For the same substance, the “in vivo blocking capacity after the first i.v. injection” value in experiment [2] (1 mg/kg Bw, sera 18-20 hours after injection (FIGS. 14 and 15)) is “clearly less efficient”.
